Reference: patent US20140303164A1, “THERAPEUTIC COMPOUNDS” (Gilead Sciences, Inc., priority 2013, published 2014)

Legend:
HIV-IIIb = assay: Test A: Antiviral Assay in MT4 Cells; type: cell-based, HIV-1; settings: Human immunodeficiency virus 1, IIIB, MT4, 120 h; for inhibition at 0.2 µM: read-out: % inhibition at 0.2 μM; for inhibition at 2 µM: read-out: % inhibition at 2 μM
Experimental: Test A: Antiviral Assay in MT4 Cells
(§1) MT-4 cells were next mixed with HIV-IIIb at an m.o.i of 0.003 for 1 hour, after which time 35 μL of virus/cell mixture (2000 cells) was immediately added to each well containing 40 μL of diluted compound. The plates were then incubated at 37° C. for 5 days. […] Cell lysis was carried out by incubating at room temperature for 10 min and then chemiluminescence was read.

[1] = Test B: Cytotoxicity Assay; type: cell-based; settings: human, uninfected MT-4 cells, same protocol as Test A
Experimental: as §1
Test B: Cytotoxicity Assay
Compound cytotoxicity and the corresponding CC50 values was determined using the same protocol as described in the antiviral assay (Test A) except that uninfected cells were used.

Row | SMILES | inhibition at 0.2 µM (HIV-IIIb) | inhibition at 2 µM (HIV-IIIb) | CC50 at 5 days [1]
1 | CC(C)(O)C#Cc1ccc(-c2cccc3[nH]ncc23)c([C@H](Cc2cc(F)cc(F)c2)NC(=O)Cn2nc(C(F)(F)F)c3c2C(F)(F)[C@@H]2C[C@H]32)n1 [Compound 72, 2-((3bS,4aR)-5,5-difluoro-3-(trifluoromethyl)-3b,4,4a,5-tetrahydro-1H-cyclopropa[3,4]cyclopenta[1,2-c]pyrazol-1-yl)-N—((S)-2-(3,5-difluorophenyl)-1-(6-(3-hydroxy-3-methylbut-1-yn-1-yl)-3-(1H-indazol-4-yl)pyridin-2-yl)ethyl)acetamide] | 85% | 87% | 5.87 µM
2 | Cc1n[nH]c2cccc(-c3ccc(C#CC(C)(C)O)nc3[C@H](Cc3cc(F)cc(F)c3)NC(=O)Cn3nc(C(F)(F)F)c4c3C(F)(F)[C@@H]3C[C@H]43)c12 [Compound 79, 2-((3bS,4aR)-5,5-difluoro-3-(trifluoromethyl)-3b,4,4a,5-tetrahydro-1H-cyclopropa[3,4]cyclopenta[1,2-c]pyrazol-1-yl)-N—((S)-2-(3,5-difluorophenyl)-1-(6-(3-hydroxy-3-methylbut-1-yn-1-yl)-3-(3-methyl-1H-indazol-4-yl)pyridin-2-yl)ethyl)acetamide] | 100% | 100% | 4.72 µM
3 | Cn1nc(NS(C)(=O)=O)c2c(Cl)ccc(-c3ccc(C#CC(C)(C)O)nc3[C@H](Cc3cc(F)cc(F)c3)NC(=O)Cn3nc(C4(O)CC4)c4c3CCCC4)c21 [Compound 156E, (S)—N-(1-(3-(4 chloro-1-methyl-3-(methylsulfonamido)-1H-indazol-7-yl)-6-(3-hydroxy-3-methylbut-1-yn-1-yl)pyridin-2-yl)-2-(3,5-difluorophenyl)ethyl)-2-(3-(1-hydroxycyclopropyl)-4,5,6,7-tetrahydro-1H-indazol-1-yl)acetamide] | 78% | 78% | 25.6 µM
4 | CCC(=O)Nc1nn(C)c2c(-c3ccc(C#CC(C)(C)O)nc3[C@H](Cc3cc(F)cc(F)c3)NC(=O)Cn3nc(C(F)F)c4c3C(F)(F)[C@@H]3C[C@H]43)ccc(Cl)c12 [Compound 95, N-(4-chloro-7-(2-((S)-1-(2-((3b-S,4aR)-3-(difluoromethyl)-5,5-difluoro-3b,4,4a,5-tetrahydro-1H-cyclopropa[3,4]cyclopenta[1,2-c]pyrazol-1-yl)acetamido)-2-(3,5-difluorophenyl)ethyl)-6-(3-hydroxy-3-methylbut-1-yn-1-yl)pyridin-3-yl)-1-methyl-1H-indazol-3-yl)propionamide] | 93% | 93% | 6.51 µM
5 | CC(C)(O)C#Cc1ccc(-c2ccc3nnc(N)n3c2)c([C@H](Cc2cc(F)cc(F)c2)NC(=O)Cn2nc(C(F)F)c3c2C(F)(F)[C@@H]2C[C@H]32)n1 [Compound 105E, N—((S)-1-(3-(3-amino-[1,2,4]triazolo[4,3-a]pyridin-6-yl)-6-(3-hydroxy-3-methylbut-1-yn-1-yl)pyridin-2-yl)-2-(3,5-difluorophenyl)ethyl)-2-((3b-S,4aR)-3-(difluoromethyl)-5,5-difluoro-3b,4,4a,5-tetrahydro-1H-cyclopropa[3,4]cyclopenta[1,2-c]pyrazol-1-yl)acetamide] |  | 74% | 31.5 µM
6 | CN(C)C(=O)c1nn(CC(=O)N[C@@H](Cc2cc(F)cc(F)c2)c2nc(C#CC(C)(C)O)ccc2-c2ccc(Cl)c3c(NS(C)(=O)=O)nn(C)c23)c2c1[C@H]1C[C@H]1C2(F)F [Compound 164, (3bS,4aR)-1-(2-(((S)-1-(3-(4-chloro-1-methyl-3-(methylsulfonamido)-1H-indazol-7-yl)-6-(3-hydroxy-3-methylbut-1-yn-1-yl)pyridin-2-yl)-2-(3,5-difluorophenyl)ethyl)amino)-2-oxoethyl)-5,5-difluoro-N,N-dimethyl-3b,4,4a,5-tetrahydro-1H-cyclopropa[3,4]cyclopenta[1,2-c]pyrazole-3-carboxamide] | 96% | 97% | 40.5 µM
7 | CNc1cc(-c2ccc(Cl)c3c(NS(C)(=O)=O)nn(C)c23)c([C@H](Cc2cc(F)cc(F)c2)NC(=O)Cn2nc(C(F)F)c3c2C(F)(F)[C@@H]2C[C@H]32)nc1C#CC(C)(C)O [Compound 182L, N—((S)-1-(3-(4-chloro-1-methyl-3-(methylsulfonamido)-1H-indazol-7-yl)-6-(3-hydroxy-3-methylbut-1-yn-1-yl)-5-(methylamino)pyridin-2-yl)-2-(3,5-difluorophenyl)ethyl)-2-((3b-S,4aR)-3-(difluoromethyl)-5,5-difluoro-3b,4,4a,5-tetrahydro-1H-cyclopropa[3,4]cyclopenta[1,2-c]pyrazol-1-yl)acetamide] | 100% | 100% | 9.83 µM
8 | Cn1nc(NS(C)(=O)=O)c2c(Cl)ccc(-c3cc(-c4ccccc4Cl)cnc3[C@H](Cc3cc(F)cc(F)c3)NC(=O)Cn3nc(C(F)F)c4c3C(F)(F)[C@@H]3C[C@H]43)c21 [Compound 181C, N—((S)-1-(3-(4-chloro-1-methyl-3-(methylsulfonamido)-1H-indazol-7-yl)-5-(2-chlorophenyl)pyridin-2-yl)-2-(3,5-difluorophenyl)ethyl)-2-((3b-S,4aR)-3-(difluoromethyl)-5,5-difluoro-3b,4,4a,5-tetrahydro-1H-cyclopropa[3,4]cyclopenta[1,2-c]pyrazol-1-yl)acetamide] | 100% | 100% | > 53.2 µM
9 | Cn1nc(NS(C)(=O)=O)c2c(Cl)ccc(-c3ccc(C#CC(C)(C)C)nc3[C@H](Cc3cc(F)cc(F)c3)NC(=O)Cn3nc(C(F)F)c4c3C(F)(F)[C@@H]3C[C@H]43)c21 [Compound 131E, N—((S)-1-(3-(4-chloro-1-methyl-3-(methylsulfonamido)-1H-indazol-7-yl)-6-(3,3-dimethylbut-1-yn-1-yl)pyridin-2-yl)-2-(3,5-difluorophenyl)ethyl)-2-((3b-S,4aR)-3-(difluoromethyl)-5,5-difluoro-3b,4,4a,5-tetrahydro-1H-cyclopropa[3,4]cyclopenta[1,2-c]pyrazol-1-yl)acetamide] | 95% | 96% | 22.5 µM
10 | COCC(C)(O)C#Cc1ccc(-c2ccc(Cl)c3c(NS(C)(=O)=O)nn(C)c23)c([C@H](Cc2cc(F)cc(F)c2)NC(=O)Cn2nc(C(F)(F)F)c3c2C(F)(F)[C@@H]2C[C@H]32)n1 (stereo partly drawn) [Compound 154, N-((1S)-1-(3-(4-chloro-1-methyl-3-(methylsulfonamido)-1H-indazol-7-yl)-6-(3-hydroxy-4-methoxy-3-methylbut-1-yn-1-yl)pyridin-2-yl)-2-(3,5-difluorophenyl)ethyl)-2-((3bS,4aR)-5,5-difluoro-3-(trifluoromethyl)-3b,4,4a,5-tetrahydro-1H-cyclopropa[3,4]cyclopenta[1,2-c]pyrazol-1-yl)acetamide] | 97% | 97% | 12.5 µM
11 | Cn1nc(NS(C)(=O)=O)c2c(Cl)ccc(-c3ccc(C#CC(C)(O)CO)nc3[C@H](Cc3cc(F)cc(F)c3)NC(=O)Cn3nc(C(F)F)c4c3C(F)(F)[C@@H]3C[C@H]43)c21 (stereo partly drawn) [Compound 166, N-((1S)-1-(3-(4-chloro-1-methyl-3-(methylsulfonamido)-1H-indazol-7-yl)-6-(3,4-dihydroxy-3-methylbut-1-yn-1-yl)pyridin-2-yl)-2-(3,5-difluorophenyl)ethyl)-2-((3b-S,4aR)-3-(difluoromethyl)-5,5-difluoro-3b,4,4a,5-tetrahydro-1H-cyclopropa[3,4]cyclopenta[1,2-c]pyrazol-1-yl)acetamide] | 92% | 92% | 24.4 µM
12 | Cn1nc(NS(C)(=O)=O)c2cccc(-c3ccc(C#CC(C)(C)O)nc3[C@H](Cc3cc(F)cc(F)c3)NC(=O)Cn3nc(C(F)(F)F)c4c3C(F)(F)[C@@H]3C[C@H]43)c21 [Compound 33F, 2-((3bS,4aR)-5,5-difluoro-3-(trifluoromethyl)-3b,4,4a,5-tetrahydro-1H-cyclopropa[3,4]cyclopenta[1,2-c]pyrazol-1-yl)-N—((S)-2-(3,5-difluorophenyl)-1-(6-(3-hydroxy-3-methylbut-1-yn-1-yl)-3-(1-methyl-3-(methylsulfonamido)-1H-indazol-7-yl)pyridin-2-yl)ethyl)acetamide] | 93% | 93% | 12.9 µM
13 | CC(C)(O)C#Cc1ccc(-c2cccc3c(N)noc23)c([C@H](Cc2cc(F)cc(F)c2)NC(=O)Cn2nc(C(F)(F)F)c3c2C(F)(F)[C@@H]2C[C@H]32)n1 [Compound 69, N—((S)-1-(3-(3-aminobenzo[d]isoxazol-7-yl)-6-(3-hydroxy-3-methylbut-1-yn-1-yl)pyridin-2-yl)-2-(3,5-difluorophenyl)ethyl)-2-((3b-S,4aR)-5,5-difluoro-3-(trifluoromethyl)-3b,4,4a,5-tetrahydro-1H-cyclopropa[3,4]cyclopenta[1,2-c]pyrazol-1-yl)acetamide] | 77% | 77% | 0.718 µM
14 | Cn1cnc(-c2ccc(-c3ccc(Cl)c4c(NS(C)(=O)=O)nn(C)c34)c([C@H](Cc3cc(F)cc(F)c3)NC(=O)Cn3nc(C(F)(F)F)c4c3C(F)(F)[C@@H]3C[C@H]43)n2)c1 [Compound 179, N—((S)-1-(3-(4-chloro-1-methyl-3-(methylsulfonamido)-1H-indazol-7-yl)-6-(1-methyl-1H-imidazol-4-yl)pyridin-2-yl)-2-(3,5-difluorophenyl)ethyl)-2-((3b-S,4aR)-5,5-difluoro-3-(trifluoromethyl)-3b,4,4a,5-tetrahydro-1H-cyclopropa[3,4]cyclopenta[1,2-c]pyrazol-1-yl)acetamide] | 100% | 100% | 15.5 µM
